Structures can show the parent of a compound that is named as a salt.
Target: PDE4D7 (Homo sapiens (Human), UniProt Q08499)
Conditions: read-out: PDE4D7 IC50; PDE4D7 without asterisk

Chain of PDE4D7 (Q08499 other isoform, or with tags, fused parts or gaps): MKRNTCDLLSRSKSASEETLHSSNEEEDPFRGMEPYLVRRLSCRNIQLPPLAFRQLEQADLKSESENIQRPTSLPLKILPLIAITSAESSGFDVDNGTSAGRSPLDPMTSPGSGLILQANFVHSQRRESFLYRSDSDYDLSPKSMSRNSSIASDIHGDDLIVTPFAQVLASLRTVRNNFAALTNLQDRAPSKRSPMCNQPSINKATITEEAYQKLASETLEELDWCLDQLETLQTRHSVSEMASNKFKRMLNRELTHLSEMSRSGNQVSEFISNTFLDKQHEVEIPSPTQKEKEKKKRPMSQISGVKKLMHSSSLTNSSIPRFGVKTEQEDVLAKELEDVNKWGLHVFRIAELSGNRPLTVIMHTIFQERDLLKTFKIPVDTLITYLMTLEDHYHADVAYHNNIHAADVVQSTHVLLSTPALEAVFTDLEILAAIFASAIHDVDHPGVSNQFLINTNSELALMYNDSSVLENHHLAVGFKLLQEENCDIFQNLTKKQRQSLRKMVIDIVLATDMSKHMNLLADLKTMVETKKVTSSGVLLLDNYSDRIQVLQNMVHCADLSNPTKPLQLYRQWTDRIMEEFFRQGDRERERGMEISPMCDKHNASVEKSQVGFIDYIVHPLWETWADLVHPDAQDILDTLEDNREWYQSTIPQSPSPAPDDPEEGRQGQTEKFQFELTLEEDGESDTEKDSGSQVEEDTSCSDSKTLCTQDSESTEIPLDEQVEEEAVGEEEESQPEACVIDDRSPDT

Compound | IC50
CCc1c(C)nc(-c2ccc(Cl)s2)nc1Nc1ccc2c(c1)COB2O [Example 71, 2-(5-chloro-2-thienyl)-5-ethyl-N-(1-hydroxy-3H-2,1-benzoxaborol-5-yl)-6-methyl-pyrimidin-4-amine] | < 1000 nM
CCc1nc(Nc2ccc(CC(N)=O)cc2)nc(-c2cccc(Cl)c2)n1 [Example 57, 2-(4-(4-(3-chlorophenyl)-6-ethyl-1,3,5-triazin-2-ylamino)phenyl)acetamide] | < 1000 nM
COCCc1ccc(Nc2cc(-c3cccc(Cl)c3)nc3c2CCC3)cc1 [Example 86, 2-(3-Chlorophenyl)-N-(4-(2-methoxyethyl)phenyl)-6,7-dihydro-5H-cyclopenta[b]pyridin-4-amine hydrochloride] | > 1000 nM
CN(C)C(=O)Cc1ccc(Nc2cc(-c3cccc(Cl)c3)nc3c2CCC3)cc1 [Example 121, 2-(4-((2-(3-chlorophenyl)-6,7-dihydro-5H-cyclopenta[b]pyridin-4-yl)amino)phenyl)-N,N-dimethylacetamide hydrochloride] | < 1000 nM
NC(=O)Cc1ccc(Nc2cc(-c3cccc(Cl)c3)[n+]([O-])c3c2CCC3)cc1 [Example 103, 4-((4-(2-Amino-2-oxoethyl)phenyl)amino)-2-(3-chlorophenyl)-6,7-dihydro-5H-cyclopenta[b]pyridine 1-oxide] | > 1000 nM
CCc1cc(Nc2ccc(C(C)(C)C(N)=O)cc2)nc(-c2cccc(Cl)c2)n1 [Example 187, 2-(4-((2-(3-Chlorophenyl)-6-ethylpyrimidin-4-yl)amino)phenyl)-2-methylpropanamide] | > 1000 nM
O=C(O)c1ccc(Nc2cc(-c3cccc(Cl)c3)nc3c2CCC3)cc1 [Example 5, 4-[[2-(3-Chlorophenyl)-6,7-dihydro-5H-cyclopenta[b]pyridin-4-yl]amino]benzoic acid] | > 1000 nM
OCCc1ccc(Nc2cc(-c3ccc(Cl)c(Cl)c3)nc3c2CCC3)cc1 [Example 154, 2-(4-((2-(3,4-Dichlorophenyl)-6,7-dihydro-5H-cyclopenta[b]pyridin-4-yl)amino)phenyl)ethanol hydrochloride] | > 1000 nM
O=C(O)Cc1ccc(Nc2nc(-c3cccc(Cl)c3)nc(C3CC3)n2)cc1 [Example 36, 2-(4-((4-(3-chlorophenyl)-6-cyclopropyl-1,3,5-triazin-2-yl)amino)phenyl)acetic acid] | > 1000 nM
NC(=O)C(CO)Cc1ccc(Nc2nc(-c3cccc(Cl)c3)nc3c2CCC3)cc1 (stereo not drawn) [Example 168, 2-(4-((2-(3-Chlorophenyl)-6,7-dihydro-5H-cyclopenta[d]pyrimidin-4-yl)amino)benzyl)-3-hydroxypropanamide] | > 1000 nM
CCc1cc(Nc2ccc(Cn3cccn3)cc2)nc(-c2cccc(Cl)c2)n1 [Example 189, N-(4-((1H-Pyrazol-1-yl)methyl)phenyl)-2-(3-chlorophenyl)-6-ethylpyrimidin-4-amine] | < 1000 nM
CCc1cc(Cc2ccc(CC(=O)O)cc2)nc(-c2cccc(Cl)c2)n1 [Example 66, 2-(4-((2-(3-chlorophenyl)-6-ethylpyrimidin-4-yl)methyl)phenyl)acetic acid] | > 1000 nM
OCCCc1ccc(Nc2cc(-c3cccc(Cl)c3)nc3c2CCC3)cc1 [Example 85, 3-(4-((2-(3-Chlorophenyl)-6,7-dihydro-5H-cyclopenta[b]pyridin-4-yl)amino)phenyl)propan-1-ol hydrochloride] | < 1000 nM
CC(C)c1nc(Nc2ccc(CC(=O)O)cc2)nc(-c2ccc(Cl)s2)n1 [Example 25, 2-(4-((4-(5-chlorothiophen-2-yl)-6-isopropyl-1,3,5-triazin-2-yl)amino)phenyl)acetic acid] | > 1000 nM
C[C@@H](O)Cc1ccc(Nc2nc(-c3cccc(Cl)c3)nc3c2CCC3)cc1 [Example 172, (R)-1-(4-((2-(3-Chlorophenyl)-6,7-dihydro-5H-cyclopenta[d]pyrimidin-4-yl)amino)phenyl)propan-2-ol] | > 1000 nM
OCCc1ccc(Nc2cc(-c3cc(F)cc(Cl)c3)nc3c2CCC3)cc1 [Example 153, 2-(4-((2-(3-Chloro-5-fluorophenyl)-6,7-dihydro-5H-cyclopenta[b]pyridin-4-yl)amino)phenyl)ethanol hydrochloride] | > 1000 nM
O=C(O)CCCc1ccc(Nc2cc(-c3cccc(Cl)c3)nc3c2CCC3)cc1 [Example 8, 4-[4-[[2-(3-Chlorophenyl)-6,7-dihydro-5H-cyclopenta[b]pyridin-4-yl]amino]phenyl]butanoic acid] | > 1000 nM
CC(=O)NC(C(=O)O)c1ccc(Nc2nc(-c3ccc(Cl)s3)nc3c2CCC3)cc1 (stereo not drawn) [Example 11, 2-Acetamido-2-[4-[[2-(5-chloro-2-thienyl)-6,7-dihydro-5H-cyclopenta[d]pyrimidin-4-yl]amino]phenyl]acetic acid] | > 1000 nM
OCCCc1ccc(Nc2nc(-c3cccc(Cl)c3)nc3c2CCC3)cc1 [Example 163, 3-(4-((2-(3-Chlorophenyl)-6,7-dihydro-5H-cyclopenta[d]pyrimidin-4-yl)amino)phenyl)propan-1-ol] | < 1000 nM
CC(Cc1ccc(Nc2cc(-c3cccc(Cl)c3)nc3c2CCC3)cc1)(C(N)=O)C(N)=O [Example 124, 2-(4-((2-(3-Chlorophenyl)-6,7-dihydro-5H-cyclopenta[b]pyridin-4-yl)amino)benzyl)-2-methylmalonamide hydrochloride] | > 1000 nM
O=C(O)Cc1ccc(Nc2nc(-c3ccc(Cl)cc3)nc(C3CC3)n2)cc1 [Example 37, 2-(4-((4-(4-chlorophenyl)-6-cyclopropyl-1,3,5-triazin-2-yl)amino)phenyl)acetic acid] | > 1000 nM
NC(=O)Cc1ccc(Nc2cc(-c3cc(Cl)cc(Cl)c3)nc3c2CCC3)cc1 [Example 157, 2-(4-((2-(3,5-Dichlorophenyl)-6,7-dihydro-5H-cyclopenta[b]pyridin-4-yl)amino)phenyl)acetamide hydrochloride] | > 1000 nM
OCCc1ccc(Cc2cc(C(F)(F)F)nc(-c3cccc(Cl)c3)n2)cc1 [Example 205, 2-(4-((2-(3-Chlorophenyl)-6-(trifluoromethyl)pyrimidin-4-yl)methyl)phenyl)ethanol] | > 1000 nM
CN(C(N)=O)c1ccc(Nc2cc(-c3cccc(Cl)c3)nc3c2CCC3)cc1 [Example 129, 1-(4-((2-(3-Chlorophenyl)-6,7-dihydro-5H-cyclopenta[b]pyridin-4-yl)amino)phenyl)-1-methylurea hydrochloride] | > 1000 nM

Continued, values first:

IC50 | Compound
> 1000 nM | NC(=O)Cc1ccc(Cc2cc(C(F)(F)F)nc(C3CCCC3)n2)cc1 [Example 230, 2-(4-((2-Cyclopentyl-6-(trifluoromethyl)pyrimidin-4-yl)methyl)phenyl)acetamide]
> 1000 nM | OCCc1ccc(Nc2nc(C3CCCC3)nc3c2CCC3)cc1 [Example 217, 2-(4-((2-Cyclopentyl-6,7-dihydro-5H-cyclopenta[d]pyrimidin-4-yl)amino)phenyl)ethanol]
> 1000 nM | O=C(O)Cc1ccc(Nc2cc(C3CC3)nc(-c3cccc(Cl)c3)n2)nc1 [Example 213, 2-(6-((2-(3-Chlorophenyl)-6-cyclopropylpyrimidin-4-yl)amino)pyridin-3-yl)acetic acid]
> 1000 nM | O=C(O)Cc1ccc(Nc2cc(C3CC3)nc(-c3ccc(Cl)s3)n2)cc1 [Example 297, 2-[4-[[2-(5-Chloro-2-thienyl)-6-cyclopropyl-pyrimidin-4-yl]amino]phenyl]acetic acid]
< 1000 nM | NC(=O)Cc1ccc(Nc2nc(C3CCCC3)nc3c2CCC3)cc1 [Example 216, 2-(4-((2-Cyclopentyl-6,7-dihydro-5H-cyclopenta[d]pyrimidin-4-yl)amino)phenyl)acetamide]
< 1000 nM | CCCNC(=O)Cc1ccc(Nc2nc(-c3ccc(Cl)s3)nc(C)c2CC)cc1 [Example 307, 2-[4-[[2-(5-Chloro-2-thienyl)-5-ethyl-6-methyl-pyrimidin-4-yl]amino]phenyl]-N-propyl-acetamide]
< 1000 nM | O=S1(=O)CCCc2nc(-c3ccccc3)nc(Nc3ccc(CCO)cc3)c21 [Example 268, 4-((4-(2-hydroxyethyl)phenyl)amino)-2-phenyl-7,8-dihydro-6H-thiopyrano[3,2-d]pyrimidine 5,5-dioxide]
> 1000 nM | CCc1cc(Cc2ccc(CC(=O)O)cc2)nc(C2CCCC2)n1 [Example 224, 2-(4-((2-Cyclopentyl-6-ethylpyrimidin-4-yl)methyl)phenyl)acetic acid]
> 1000 nM | OCCc1ccc(Nc2nc(OC3CCCC3)nc3c2CCC3)cc1 [Example 233, 2 2-(4-((2-(Cyclopentyloxy)-6,7-dihydro-5H-cyclopenta[d]pyrimidin-4-yl)amino)phenyl)ethanol]
> 1000 nM | OCCc1ccc(Nc2cc(C3CC3)nc(-c3cccc(Cl)c3)n2)nc1 [Example 214]
< 1000 nM | NC(=O)Cc1ccc(Nc2nc(-c3cccc(Cl)c3)nc3c2S(=O)(=O)CCC3)cc1 [Example 274, 2-(4-((2-(3-chlorophenyl)-5,5-dioxido-7,8-dihydro-6H-thiopyrano[3,2-d]pyrimidin-4-yl)amino)phenyl)acetamide]
> 1000 nM | CCc1c(C)nc(-c2ccc(Cl)s2)nc1Nc1ccc(Cc2nc(C(N)=O)c[nH]2)cc1 [Example 310, 2-[[4-[[2-(5-Chloro-2-thienyl)-5-ethyl-6-methyl-pyrimidin-4-yl]amino]phenyl]methyl]-1H-imidazole-4-carboxamide]
> 1000 nM | OCCc1ccc(Nc2cc(C3=CCCC3)nc3c2CCC3)cc1 [Example 248, 2-(4-((2-(Cyclopent-1-en-1-yl)-6,7-dihydro-5H-cyclopenta[b]pyridin-4-yl)amino)phenyl)ethanol hydrochloride]
< 1000 nM | O=S1(=O)CCCc2nc(C3CCCC3)nc(Nc3ccc(CCO)cc3)c21 [Example 285, 2-Cyclopentyl-4-((4-(2-hydroxyethyl)phenyl)amino)-7,8-dihydro-6H-thiopyrano[3,2-d]pyrimidine 5,5-dioxide]
> 1000 nM | OCCc1ccc(Nc2cc(-c3ncco3)nc3c2CCC3)cc1 [Example 241, 2-(4-((2-(Oxazol-2-yl)-6,7-dihydro-5H-cyclopenta[b]pyridin-4-yl)amino)phenyl)ethanol]
